Source: ChEMBL document CHEMBL1201862, “PubChem BioAssay data set” (2004)
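The compound was tested at five concentrations on cells cultured in 96-well plates, with a 48-hour exposure period. GI50 is the concentration that inhibits growth by half.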 Activity calls are given as the source filed them. Rule as the data show it: active = GI50 up to about 1.1 µM and inactive = higher.

Experiments:
Assay in all cases: NCI tumour cell line growth inhibition, 48 h
[1] = test system: OVCAR-4
[2] = test system: RPMI-8226
[3] = test system: SK-OV-3
[4] = test system: SW-620
[5] = test system: NCI-H460
[6] = test system: SK-MEL-5
[7] = test system: A498
[8] = test system: KM12
[9] = test system: HL-60
[10] = test system: EKVX
[11] = test system: UO-31
[12] = test system: U-251
[13] = test system: SF-295
[14] = test system: HCT-116
[15] = test system: OVCAR-5
[16] = test system: NCI-H23
[17] = test system: LOX IMVI
[18] = test system: SNB-75
[19] = test system: A549
[20] = test system: Hs-578T

SMILES | GI50 [1] | GI50 [2] | GI50 [3] | GI50 [4] | GI50 [5] | GI50 [6] | GI50 [7] | GI50 [8] | GI50 [9] | GI50 [10] | GI50 [11] | GI50 [12] | GI50 [13] | GI50 [14] | GI50 [15] | GI50 [16] | GI50 [17] | GI50 [18] | GI50 [19] | GI50 [20]
Nc1c(S(=O)(=O)O)cc2cc(S(=O)(=O)O)ccc2c1/N=N/c1ccc(-c2ccc(/N=N/c3c(N)c(S(=O)(=O)O)cc4cc(S(=O)(=O)O)ccc34)c(S(=O)(=O)O)c2)cc1 | 29.4 µM (inactive) | > 100 µM (inactive) | > 100 µM (inactive) | > 100 µM (inactive) | > 31.6 µM (inactive) | > 100 µM (inactive) | > 100 µM (inactive) | > 100 µM (inactive) | > 71.1 µM (inactive) | > 100 µM (inactive) | > 92.3 µM (inactive) | > 100 µM (inactive) | > 100 µM (inactive) | > 100 µM (inactive) | > 100 µM (inactive) | > 100 µM (inactive) | > 100 µM (inactive) | 85.5 µM (inactive) | > 83.4 µM (inactive) | –
COc1cccc2c1C(=O)c1c(O)c3c(c(O)c1C2=O)CC(O)(C(=O)CO)CC3OC1CC(N)C(I)C(C)O1 (stereo not drawn) | 4.01 µM (inactive) | 4.5 µM (inactive) | 3.98 µM (inactive) | 3.08 µM (inactive) | 0.313 µM (active) | 2.64 µM (inactive) | 3.53 µM (inactive) | > 30.3 µM (inactive) | 0.428 µM (active) | 14.4 µM (inactive) | 4.88 µM (inactive) | 2.7 µM (inactive) | 2.1 µM (inactive) | 0.573 µM (active) | 13.5 µM (inactive) | 2.28 µM (inactive) | 1.45 µM (inactive) | 2.52 µM (inactive) | 0.736 µM (active) | –
CC(C)N1CSC(=S)N(Cc2ccccc2)C1 | > 10 µM (inactive) | 2.58 µM (inactive) | > 10 µM (inactive) | 3.18 µM (inactive) | > 10 µM (inactive) | 4.66 µM (inactive) | > 10 µM (inactive) | 3.36 µM (inactive) | 0.197 µM (active) | > 10 µM (inactive) | – | > 10 µM (inactive) | > 10 µM (inactive) | 3.01 µM (inactive) | – | 3.1 µM (inactive) | 3.66 µM (inactive) | 2.8 µM (inactive) | > 10 µM (inactive) | > 10 µM (inactive)
N#C/C(=C\NC(=S)Nc1ccc(S(=O)(=O)Nc2ccccn2)cc1)C(N)=O | > 100 µM (inactive) | > 100 µM (inactive) | > 100 µM (inactive) | > 100 µM (inactive) | > 100 µM (inactive) | > 100 µM (inactive) | > 100 µM (inactive) | > 100 µM (inactive) | – | > 100 µM (inactive) | > 100 µM (inactive) | > 100 µM (inactive) | > 100 µM (inactive) | > 100 µM (inactive) | > 100 µM (inactive) | 80.2 µM (inactive) | > 100 µM (inactive) | 61.8 µM (inactive) | > 100 µM (inactive) | > 100 µM (inactive)
CC(=O)NNc1nc(C)c(C(=O)NNC(=O)C(=O)Nc2ccc([N+](=O)[O-])cc2[N+](=O)[O-])s1 | > 100 µM (inactive) | 99.8 µM (inactive) | > 100 µM (inactive) | > 100 µM (inactive) | > 100 µM (inactive) | > 100 µM (inactive) | > 100 µM (inactive) | > 100 µM (inactive) | 64.9 µM (inactive) | 35.6 µM (inactive) | > 100 µM (inactive) | 68.7 µM (inactive) | > 100 µM (inactive) | > 100 µM (inactive) | > 100 µM (inactive) | > 100 µM (inactive) | > 100 µM (inactive) | 47.5 µM (inactive) | 68.9 µM (inactive) | –
CSc1nc(SC)c2cnn(CC3CO3)c2n1 (stereo not drawn) | 20.7 µM (inactive) | 35.1 µM (inactive) | 30.8 µM (inactive) | 11.6 µM (inactive) | 21 µM (inactive) | 13.3 µM (inactive) | 62.7 µM (inactive) | 20.3 µM (inactive) | 17.5 µM (inactive) | 29.3 µM (inactive) | 19.5 µM (inactive) | 19.1 µM (inactive) | 24.6 µM (inactive) | 13.4 µM (inactive) | 17 µM (inactive) | 18.6 µM (inactive) | 7.59 µM (inactive) | 17.3 µM (inactive) | 25.4 µM (inactive) | –
CC(=O)NC(c1nc2cc(C)c(C)cc2[nH]1)c1nc2cc(C)c(C)cc2[nH]1 | 21.9 µM (inactive) | 4.57 µM (inactive) | 17.7 µM (inactive) | 22.3 µM (inactive) | 11.7 µM (inactive) | 15.2 µM (inactive) | 17.9 µM (inactive) | 16 µM (inactive) | 28.2 µM (inactive) | 24.3 µM (inactive) | 25.4 µM (inactive) | 20.9 µM (inactive) | 22.4 µM (inactive) | 19.1 µM (inactive) | 41.7 µM (inactive) | 32.2 µM (inactive) | 19 µM (inactive) | 22.1 µM (inactive) | 21.3 µM (inactive) | 36.8 µM (inactive)
O=C(NN1C(=O)C(Cl)C1c1ccc([N+](=O)[O-])cc1)c1ccccc1O (stereo not drawn) | > 100 µM (inactive) | > 100 µM (inactive) | > 100 µM (inactive) | > 100 µM (inactive) | > 100 µM (inactive) | > 100 µM (inactive) | – | > 100 µM (inactive) | > 100 µM (inactive) | > 100 µM (inactive) | > 100 µM (inactive) | > 100 µM (inactive) | > 100 µM (inactive) | > 100 µM (inactive) | > 100 µM (inactive) | > 100 µM (inactive) | – | 51.8 µM (inactive) | > 100 µM (inactive) | –
Nc1nc2cc(COc3ccc(C(=O)O)cc3)ccc2nc1-c1ccccc1 | > 10 µM (inactive) | > 10 µM (inactive) | > 10 µM (inactive) | > 10 µM (inactive) | > 10 µM (inactive) | > 10 µM (inactive) | – | > 10 µM (inactive) | > 10 µM (inactive) | > 10 µM (inactive) | > 10 µM (inactive) | > 10 µM (inactive) | > 10 µM (inactive) | – | > 10 µM (inactive) | > 10 µM (inactive) | > 10 µM (inactive) | > 10 µM (inactive) | > 10 µM (inactive) | > 10 µM (inactive)
CCOC(=O)C1=C(C)N(NC(N)=O)C2(O)CCCC(=O)C12C (stereo not drawn) | > 100 µM (inactive) | > 100 µM (inactive) | > 100 µM (inactive) | > 100 µM (inactive) | – | > 100 µM (inactive) | > 100 µM (inactive) | > 100 µM (inactive) | – | – | – | > 100 µM (inactive) | > 100 µM (inactive) | > 10 µM (inactive) | > 100 µM (inactive) | > 100 µM (inactive) | > 100 µM (inactive) | > 100 µM (inactive) | > 100 µM (inactive) | –
CCOC(=O)C1=C(C)N(c2ccc(OC)cc2)C2(O)C=CC(O)=C3C(=O)c4ccccc4C(=O)C312 (stereo not drawn) | 2.99 µM (inactive) | 2.44 µM (inactive) | 13.4 µM (inactive) | 13.5 µM (inactive) | 11.5 µM (inactive) | 11.4 µM (inactive) | 10.5 µM (inactive) | 12.9 µM (inactive) | 5.93 µM (inactive) | 7.43 µM (inactive) | 13.9 µM (inactive) | 8.49 µM (inactive) | 8.77 µM (inactive) | 11.3 µM (inactive) | 15.8 µM (inactive) | 16.1 µM (inactive) | 7.16 µM (inactive) | – | 11.1 µM (inactive) | 5.47 µM (inactive)
S=CN1CCCCC1 | – | > 100 µM (inactive) | > 100 µM (inactive) | > 100 µM (inactive) | > 100 µM (inactive) | > 100 µM (inactive) | > 100 µM (inactive) | > 100 µM (inactive) | > 100 µM (inactive) | > 100 µM (inactive) | > 100 µM (inactive) | > 100 µM (inactive) | > 100 µM (inactive) | > 100 µM (inactive) | > 100 µM (inactive) | > 100 µM (inactive) | > 100 µM (inactive) | > 100 µM (inactive) | > 100 µM (inactive) | > 100 µM (inactive)
CC1(c2sccc2Cl)CC(c2sccc2Cl)=C(C#N)C(=C(C#N)C#N)N1 (stereo not drawn) | 25.1 µM (inactive) | 36.1 µM (inactive) | 17.5 µM (inactive) | 18.8 µM (inactive) | 19 µM (inactive) | 18.5 µM (inactive) | 18 µM (inactive) | 20.9 µM (inactive) | 34.2 µM (inactive) | 18.7 µM (inactive) | – | 18.5 µM (inactive) | 17.9 µM (inactive) | 17.2 µM (inactive) | 22.3 µM (inactive) | 17.9 µM (inactive) | 19.2 µM (inactive) | – | 24.7 µM (inactive) | 21.5 µM (inactive)
c1ccc(C(c2ccccc2)[P+](c2ccccc2)(c2ccccc2)c2ccccc2)cc1 | 0.479 µM (active) | 0.226 µM (active) | 0.596 µM (active) | 0.466 µM (active) | 0.456 µM (active) | 0.37 µM (active) | 2.32 µM (inactive) | 0.241 µM (active) | 0.182 µM (active) | 4.7 µM (inactive) | 0.951 µM (active) | 0.431 µM (active) | 1.7 µM (inactive) | 0.326 µM (active) | 0.933 µM (active) | 0.45 µM (active) | 0.265 µM (active) | 0.467 µM (active) | 0.422 µM (active) | –
